# Data published in patent publication US5304554A, “4-[(alkyl or dialkyl)amino]quinolines and their method of preparation” (Emory University, priority 1992, dated 1994).
# Entries after “also recorded” stand apart in the source; their conditions may differ.
# Legend:
# HIV-1 (strain LAV) = assay: Anti-HIV-1 activity in human PBM cells infected with HIV-1 (strain LAV), reverse transcriptase readout; type: cell-based; settings: Human immunodeficiency virus 1, PBMC, read-out: Median effective concentration (EC50) against HIV-1
# Description: The median effective concentrations (EC50) of selected quinolines against HIV-1 were determined in human blood mononuclear (PBM) cells infected with HIV-1 (strain LAV) as described below. […] It appears that the presence of a heteraromatic substituent at position 2 of the quinoline enhances the anti-HIV-1 activity of the 4-[(alkyl and dialkyl)amino]quinoline derivative. The anti-HIV-1 activity appears to be diminished in compounds with large substituents attached to the 4-amino group.
# The following procedure was used to determine the EC50 values for selected compounds.
# A. Three-day-old phytohemagglutinin-stimulated PBM cells (10^6 cells/ml) from hepatitis B and HIV-1 seronegative healthy donors were infected with HIV-1 (strain LAV) at a concentration of about 100 times the 50% tissue culture infectious dose (TICD 50) per ml and cultured in the presence and absence of various concentrations of quinolines.
# B. Approximately 45 minutes after infection, medium, with the compound to be tested (2 times the final concentration in medium) or without compound, was added to the flasks (5 ml; final volume 10 ml). AZT was used as a positive control.
# C. The cells were exposed to HIV (about 2×10^5 dpm/ml, as determined by reverse transcriptase assay) and then placed in a CO2 incubator. HIV-1 (strain LAV) was obtained from the Center for Disease Control, Atlanta, Ga. The methods used for culturing the PBM cells, harvesting the virus and determining the reverse transcriptase activity were those described by McDougal et al. (J. Immun. Meth. 76, 171-183, 1985) and Spira et al. (J. Clin. Meth. 25, 97-99, 1987), except that fungizone was not included in the medium (see Schinazi, et al., Antimicrob. Agents Chemother. 32, 1784-1787 (1988)). The reverse transcriptase activity in the virus-infected control was about 2×10^5 dpm per ml. Blank and uninfected cell control values were about 300 and 1,000 dpm, respectively.
# D. On day 6, the cells and media were transferred to a 15 ml tube and centrifuged at about 900 g for 10 minutes. Five ml of supernatant were removed and the virus concentrated by centrifugation at 40,000 rpm for 30 minutes (Beckman 70.1 Ti rotor). The solubilized virus pellet was processed for determination of the levels of reverse transcriptase. Results are expressed in dpm/ml of sampled supernatant.
# The median effective (EC50) concentrations for derivatized quinolines, were determined by the median effect method (Antimicrob. Agents Chemother. 30: 491-498, 1986). Briefly, in the median effect method, the percent inhibition of virus, as determined from measurements of reverse transcriptase, is plotted versus the micromolar concentration of compound. The EC50 is the concentration of compound at which there is a 50% inhibition of viral replication.
# [1] = Toxicity (growth) in uninfected human peripheral blood mononuclear (PBM) cells; type: cell-based; settings: 6 days, trypan blue exclusion, read-out: IC50, growth of uninfected PBM cells
# Description: The toxicity of 6a,6d,8a, and 8c were determined in […] PBM cells (3.8×10^5 cells/ml) cultured in the presence and absence of compounds under conditions similar to those used for the antiviral assay described above but without virus. The cells were counted after 6 days using a hemacytometer and the trypan blue exclusion method, as described by Schinazi et al., Antimicrobial Agents and Chemotherapy, 22(3), 499 (1982).
# The effect of the compounds on the growth of uninfected human PBM cells in culture is used as an indicator of the toxicity of the test compound to the normal viability of cells. The IC50 is the concentration of compound which inhibits 50% of normal, uninfected, cell growth.
# [2] = infants and children, high dosages; cited from earlier work
# DNA = settings: Hahn et al. 1966; cited from earlier work
# [3] = tested on: antimalarial and antiamoebic activity; settings: Hahn et al.; cited from earlier work
# [4] = tested on: Plasmid pBR322 superhelical DNA; settings: reference value; cited from earlier work
Compound,EC50 (HIV-1 (strain LAV)) [µM],further results
CCN(CCN(C)C)c1cc(-c2ccccn2)nc2ccccc12 [Quinoline 5b],13.2,
CN1CCN(c2cc(-c3ccccn3)nc3ccccc23)CC1 [Quinoline 5d],5.5,
CN1CCN(c2cc(-c3cccnc3)nc3ccccc23)CC1 [Quinoline 6d],1,CC50 at 144 h [1]: > 100 µM
CN1CCN(c2cc(-c3ccncc3)nc3ccccc23)CC1 [Quinoline 7c],68.2,
CN1CCN(c2cc(-c3ccco3)nc3ccccc23)CC1 [Quinoline 8c],1,CC50 at 144 h [1]: > 100 µM
"CCN(CC)CCCC(C)Nc1ccnc2cc(Cl)ccc12 (centres unmarked) [chloroquine, 7-chloro-4-(4-diethylamino-1-methylbutylamino)quinoline]",,Adverse effects (in words) [2]: Sudden deaths have been reported; also recorded: infants and children are extremely susceptible to adverse effects; Inhibition of nucleic acid biosynthesis (in words) (DNA): inhibits nucleic acid biosynthesis by forming a molecular complex with DNA; Antimalarial and antiamoebic activity (in words) [3]: have antimalarial and antiamoebic activity
CC[n+]1c(-c2ccccc2)c2cc(N)ccc2c2ccc(N)cc21 [ethidium],,Unwinding angle [4]: 26
"CCN(CC)CCCC(C)Nc1c2ccc(Cl)cc2nc2ccc(OC)cc12 (centres unmarked) [quinacrine, 6-chloro-9-[[4-(diethylamino)-1-methylbutyl]amino]-2-methoxyacridine]",,Antimalarial and antiamoebic activity (in words) [3]: have antimalarial and antiamoebic activity

# Second part, led by results:
EC50 (HIV-1 (strain LAV)) [µM],Compound,further results
1.1,CN(C)CCNc1cc(-c2ccccn2)nc2ccccc12 [Quinoline 5a],
1.5,CN(C)CCNc1cc(-c2cccnc2)nc2ccccc12 [Quinoline 6a],CC50 at 144 h [1]: > 100 µM
24.2,CCN(CCN(C)C)c1cc(-c2cccnc2)nc2ccccc12 [Quinoline 6b],
0.9,CN(C)CCNc1cc(-c2ccco2)nc2ccccc12 [Quinoline 8a],CC50 at 144 h [1]: > 100 µM
1,CN(C)CCNc1cc(-c2cccs2)nc2ccccc12 [Quinoline 9a],
32.4,CCN(CCN(C)C)c1cc(-c2cccs2)nc2ccccc12 [Quinoline 9c],
